molecular target: T1, recombinant CETP (rCETP) (Homo sapiens, UniProt P11597); test: RTA assay using recombinant CETP (2% RTA); format: biochemical; settings: RTA assay in 2% human serum; read-out: IC50
T1 sequence (P11597 18-493): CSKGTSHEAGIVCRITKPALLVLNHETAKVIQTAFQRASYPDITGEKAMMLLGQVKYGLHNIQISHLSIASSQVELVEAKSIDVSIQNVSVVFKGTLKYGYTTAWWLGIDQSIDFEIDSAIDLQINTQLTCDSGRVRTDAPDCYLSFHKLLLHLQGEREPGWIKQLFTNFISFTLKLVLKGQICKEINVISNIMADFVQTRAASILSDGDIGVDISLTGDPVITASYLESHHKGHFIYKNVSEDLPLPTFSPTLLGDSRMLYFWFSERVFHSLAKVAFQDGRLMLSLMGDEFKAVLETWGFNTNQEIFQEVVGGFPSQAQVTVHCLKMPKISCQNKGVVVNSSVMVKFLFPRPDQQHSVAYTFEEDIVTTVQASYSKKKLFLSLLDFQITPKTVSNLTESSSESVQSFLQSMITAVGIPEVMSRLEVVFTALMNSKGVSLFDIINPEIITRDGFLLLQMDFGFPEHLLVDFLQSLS
Summary of the method: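 Compounds preincubated 1 h at 37 °C with assay cocktail (CETP buffer: 50 mM Tris pH 7.4, 100 mM NaCl, 1 mM EDTA; human HDL acceptor); transfer started with [3H]cholesteryl oleate- or [3H]triolein-labelled LDL, 60 min at 37 °C. LDL PEG-precipitated; supernatant counted by scintillation, blank-corrected; IC50 from 4-parameter sigmoidal fit of % inhibition vs DMSO control.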

SMILES | IC50
COc1ccc(-c2ccc(C(=O)O)nc2)cc1-c1ccc(N2CCC2)nc1CN1C(=O)O[C@H](c2cc(C(F)(F)F)cc(C(F)(F)F)c2)[C@@H]1C [Example 120] | 0.033 µM
COc1ccc(-c2ccc(C(=O)O)cn2)cc1-c1ccc(N2CCC2)nc1CN1C(=O)O[C@H](c2cc(C(F)(F)F)cc(C(F)(F)F)c2)[C@@H]1C [Example 121] | 0.028 µM
COc1ccc(CC(C)(C)C(=O)O)cc1-c1ccc(N2CCC2)nc1CN1C(=O)O[C@H](c2cc(C(F)(F)F)cc(C(F)(F)F)c2)[C@@H]1C [Example 122, 3-{3-[6-Azetidin-1-yl-2-({(4S,5R)-5-[3,5-bis(trifluoromethyl)phenyl]-4-methyl-2-oxo-1,3-oxazolidin-3-yl}methyl)pyridin-3-yl]-4-methoxyphenyl}-2,2-dimethylpropanoic acid] | 0.015 µM
CCOC(=O)[C@@H]1CC1c1ccc(OC)c(-c2cnc(N3CCC3)nc2CN2C(=O)O[C@H](c3cc(C(F)(F)F)cc(C(F)(F)F)c3)[C@@H]2C)c1 (stereo partly shown) [Example 124] | 0.033 µM
COc1ccc([C@H]2CC[C@H](C(=O)OC)CC2)cc1-c1cnc(N2CCC2)nc1CN1C(=O)O[C@H](c2cc(C(F)(F)F)cc(C(F)(F)F)c2)[C@@H]1C [Example 125] | 0.06 µM
CCOC(=O)C[C@@H]1CCc2cc(OC)c(-c3cnc(N4CCC4)nc3CN3C(=O)O[C@H](c4cc(C(F)(F)F)cc(C(F)(F)F)c4)[C@@H]3C)cc21 [Example 126] | 0.134 µM
COc1ccc(CC(C)(C)C(=O)OC(C)(C)C)cc1-c1cnc(N2CCC2)nc1CN1C(=O)O[C@H](c2cc(C(F)(F)F)cc(C(F)(F)F)c2)[C@@H]1C [Example 127] | 0.114 µM
COc1ccc([C@H]2CC[C@H](C(=O)OC)CC2)cc1-c1cnc(N2CC(F)(F)C2)nc1CN1C(=O)O[C@H](c2cc(C(F)(F)F)cc(C(F)(F)F)c2)[C@@H]1C [Example 128] | 1.08 µM
CCOC(=O)[C@@H]1CC1c1ccc(OC)c(-c2cnc(N3CC(F)(F)C3)nc2CN2C(=O)O[C@H](c3cc(C(F)(F)F)cc(C(F)(F)F)c3)[C@@H]2C)c1 (stereo partly shown) [Example 129] | 0.018 µM
CCOC(=O)C[C@@H]1CCc2cc(OC)c(-c3cnc(N4CC(F)(F)C4)nc3CN3C(=O)O[C@H](c4cc(C(F)(F)F)cc(C(F)(F)F)c4)[C@@H]3C)cc21 [Example 130] | 0.032 µM
COC(=O)c1ccc(-c2ccc(OC)c(-c3cnc(N4CC(F)(F)C4)nc3CN3C(=O)O[C@H](c4cc(C(F)(F)F)cc(C(F)(F)F)c4)[C@@H]3C)c2)c(C)c1 [Example 131] | 0.01 µM
COC(=O)c1ccc(-c2cc(-c3cnc(N4CC(F)(F)C4)nc3CN3C(=O)O[C@H](c4cc(C(F)(F)F)cc(C(F)(F)F)c4)[C@@H]3C)c(OC)cc2F)c(C)c1 [Example 132] | 0.004 µM
CCc1ccc(-c2ccc(C(=O)OC)cc2C)cc1-c1cnc(N2CC(F)(F)C2)nc1CN1C(=O)O[C@H](c2cc(C(F)(F)F)cc(C(F)(F)F)c2)[C@@H]1C [Example 133] | 0.039 µM
COC(=O)c1ccc(-c2ccc(OC)c(-c3cnc(N4CC(OC)C4)nc3CN3C(=O)O[C@H](c4cc(C(F)(F)F)cc(C(F)(F)F)c4)[C@@H]3C)c2)c(C)c1 [Example 135] | 0.089 µM
COC(=O)c1ccc(-c2cc(-c3cnc(N4CC(OC)C4)nc3CN3C(=O)O[C@H](c4cc(C(F)(F)F)cc(C(F)(F)F)c4)[C@@H]3C)c(OC)cc2F)c(C)c1 [Example 136] | 0.055 µM
CCc1ccc(-c2ccc(C(=O)OC)cc2C)cc1-c1cnc(N2CC(OC)C2)nc1CN1C(=O)O[C@H](c2cc(C(F)(F)F)cc(C(F)(F)F)c2)[C@@H]1C [Example 137] | 0.605 µM
COC(=O)[C@H]1CC[C@H](c2ccc(Cl)c(-c3cnc(N4CC(OC)C4)nc3CN3C(=O)O[C@H](c4cc(C(F)(F)F)cc(C(F)(F)F)c4)[C@@H]3C)c2)CC1 [Example 138] | 2.03 µM
COC(=O)CCc1ccc(OC)c(-c2c(C)nc(N3CC(F)(F)C3)nc2CN2C(=O)O[C@H](c3cc(C(F)(F)F)cc(C(F)(F)F)c3)[C@@H]2C)c1 [Example 139, Methyl 3-{3-[4-({(4S,5R)-5-[3,5-bis(trifluoromethyl)phenyl]-4-methyl-2-oxo-1,3-oxazolidin-3-yl}methyl)-2-(3,3-difluoroazetidin-1-yl)-6-methylpyrimidin-5-yl]-4-methoxyphenyl}propanoate] | 0.013 µM
COC(=O)CCc1ccc(OC)c(-c2cnc(N3CC(OC)C3)nc2CN2C(=O)O[C@H](c3cc(C(F)(F)F)cc(C(F)(F)F)c3)[C@@H]2C)c1 [Example 140, Methyl 3-{3-[4-({(4S,5R)-5-[3,5-bis(trifluoromethyl)phenyl]-4-methyl-2-oxo-1,3-oxazolidin-3-yl}methyl)-2-(3-methoxyazetidin-1-yl)pyrimidin-5-yl]-4-methoxyphenyl}propanoate] | 0.344 µM
COC(=O)CCc1ccc(OC)c(-c2cnc(N3CC(F)C3)nc2CN2C(=O)O[C@H](c3cc(C(F)(F)F)cc(C(F)(F)F)c3)[C@@H]2C)c1 [Example 143] | 0.007 µM

SMILES | IC50
COC(=O)CCc1ccc(OC)c(-c2cnc(N3CC(F)(F)C3)nc2CN2C(=O)O[C@H](c3cc(C(F)(F)F)cc(C(F)(F)F)c3)[C@@H]2C)c1 [Example 144] | 0.017 µM
COC(=O)CC(C)(C)c1ccc(OC)c(-c2cnc(N3CCC3)nc2CN2C(=O)O[C@H](c3cc(C(F)(F)F)cc(C(F)(F)F)c3)[C@@H]2C)c1 [Example 145] | 0.016 µM
COC(=O)[C@H]1CC[C@H](c2ccc(Cl)c(-c3cnc(N4CCC4)nc3CN3C(=O)O[C@H](c4cc(C(F)(F)F)cc(C(F)(F)F)c4)[C@@H]3C)c2)CC1 [Example 146] | 0.16 µM
COC(=O)[C@H]1CC[C@H](c2ccc(Cl)c(-c3cnc(N4CC(F)(F)C4)nc3CN3C(=O)O[C@H](c4cc(C(F)(F)F)cc(C(F)(F)F)c4)[C@@H]3C)c2)CC1 [Example 147] | 0.094 µM
COc1cc(F)c(-c2ccc(C(=O)O)cc2C)cc1-c1cnc(N2CC(F)C2)nc1CN1C(=O)O[C@H](c2cc(C(F)(F)F)cc(C(F)(F)F)c2)[C@@H]1C [Example 152, 5′-[4-({(4S,5R)-5-[3,5-bis(trifluoromethyl)phenyl]-4-methyl-2-oxo-1,3-oxazolidin-3-yl}methyl)-2-(3-fluoroazetidin-1-yl)pyrimidin-5-yl]-2′-fluoro-4′-methoxy-2-methylbiphen-4-carboxylic acid] | 0.01 µM
COc1ccc(C2C[C@H]2C(=O)O)cc1-c1cnc(N2CCC2)nc1CN1C(=O)O[C@H](c2cc(C(F)(F)F)cc(C(F)(F)F)c2)[C@@H]1C (stereo partly shown) [Example 153] | 0.053 µM
COc1ccc([C@H]2CC[C@H](C(=O)O)CC2)cc1-c1cnc(N2CCC2)nc1CN1C(=O)O[C@H](c2cc(C(F)(F)F)cc(C(F)(F)F)c2)[C@@H]1C [Example 154] | 0.027 µM
COc1cc2c(cc1-c1cnc(N3CCC3)nc1CN1C(=O)O[C@H](c3cc(C(F)(F)F)cc(C(F)(F)F)c3)[C@@H]1C)[C@H](CC(=O)O)CC2 [Example 155] | 0.04 µM
COc1ccc(CC(C)(C)C(=O)O)cc1-c1cnc(N2CCC2)nc1CN1C(=O)O[C@H](c2cc(C(F)(F)F)cc(C(F)(F)F)c2)[C@@H]1C [Example 156] | 0.042 µM
COc1ccc([C@H]2CC[C@H](C(=O)O)CC2)cc1-c1cnc(N2CC(F)(F)C2)nc1CN1C(=O)O[C@H](c2cc(C(F)(F)F)cc(C(F)(F)F)c2)[C@@H]1C [Example 157] | 0.01 µM
COc1ccc(C2C[C@H]2C(=O)O)cc1-c1cnc(N2CC(F)(F)C2)nc1CN1C(=O)O[C@H](c2cc(C(F)(F)F)cc(C(F)(F)F)c2)[C@@H]1C (stereo partly shown) [Example 158] | 0.021 µM
COc1cc2c(cc1-c1cnc(N3CC(F)(F)C3)nc1CN1C(=O)O[C@H](c3cc(C(F)(F)F)cc(C(F)(F)F)c3)[C@@H]1C)[C@H](CC(=O)O)CC2 [Example 159] | 0.055 µM
COc1ccc(-c2ccc(C(=O)O)cc2C)cc1-c1cnc(N2CC(F)(F)C2)nc1CN1C(=O)O[C@H](c2cc(C(F)(F)F)cc(C(F)(F)F)c2)[C@@H]1C [Example 160] | 0.009 µM
COc1cc(F)c(-c2ccc(C(=O)O)cc2C)cc1-c1cnc(N2CC(F)(F)C2)nc1CN1C(=O)O[C@H](c2cc(C(F)(F)F)cc(C(F)(F)F)c2)[C@@H]1C [Example 161] | 0.007 µM
CCc1ccc(-c2ccc(C(=O)O)cc2C)cc1-c1cnc(N2CC(F)(F)C2)nc1CN1C(=O)O[C@H](c2cc(C(F)(F)F)cc(C(F)(F)F)c2)[C@@H]1C [Example 162] | 0.006 µM
COc1ccc(C2C[C@@H]2C(=O)O)cc1-c1cnc(N2CC(F)(F)C2)nc1CN1C(=O)O[C@H](c2cc(C(F)(F)F)cc(C(F)(F)F)c2)[C@@H]1C (stereo partly shown) [Example 163] | 0.014 µM
COc1ccc(-c2ccc(C(=O)O)cc2C)cc1-c1cnc(N2CC(OC)C2)nc1CN1C(=O)O[C@H](c2cc(C(F)(F)F)cc(C(F)(F)F)c2)[C@@H]1C [Example 164] | 0.016 µM
COc1cc(F)c(-c2ccc(C(=O)O)cc2C)cc1-c1cnc(N2CC(OC)C2)nc1CN1C(=O)O[C@H](c2cc(C(F)(F)F)cc(C(F)(F)F)c2)[C@@H]1C [Example 165] | 0.011 µM
CCc1ccc(-c2ccc(C(=O)O)cc2C)cc1-c1cnc(N2CC(OC)C2)nc1CN1C(=O)O[C@H](c2cc(C(F)(F)F)cc(C(F)(F)F)c2)[C@@H]1C [Example 166] | 0.046 µM
COC1CN(c2ncc(-c3cc([C@H]4CC[C@H](C(=O)O)CC4)ccc3Cl)c(CN3C(=O)O[C@H](c4cc(C(F)(F)F)cc(C(F)(F)F)c4)[C@@H]3C)n2)C1 [Example 167] | 0.771 µM

Reference: patent US9221834B2 (Merck Sharp & Dohme Corp., priority 2010, dated 2015)
